Assay results: patent US9572785B2, “DP2 antagonist and uses thereof” (Brickell Biotech, Inc., priority 2009, dated 2017)
≈ marks a conversion by molar mass, not a printed value. Like-named read-outs stand apart in the source and are kept apart here.

Tests used:
[1] = biological target: T1, recombinant human CRTH2 receptor (Homo sapiens, UniProt Q9Y5Y4); assay: In vitro GTPγS binding assay; type: biochemical; settings: CHO membranes, 80 nM PGD2, 0.2% human serum albumin
T1 construct: expressed in transfected cells
T1 sequence (Q9Y5Y4 1-395): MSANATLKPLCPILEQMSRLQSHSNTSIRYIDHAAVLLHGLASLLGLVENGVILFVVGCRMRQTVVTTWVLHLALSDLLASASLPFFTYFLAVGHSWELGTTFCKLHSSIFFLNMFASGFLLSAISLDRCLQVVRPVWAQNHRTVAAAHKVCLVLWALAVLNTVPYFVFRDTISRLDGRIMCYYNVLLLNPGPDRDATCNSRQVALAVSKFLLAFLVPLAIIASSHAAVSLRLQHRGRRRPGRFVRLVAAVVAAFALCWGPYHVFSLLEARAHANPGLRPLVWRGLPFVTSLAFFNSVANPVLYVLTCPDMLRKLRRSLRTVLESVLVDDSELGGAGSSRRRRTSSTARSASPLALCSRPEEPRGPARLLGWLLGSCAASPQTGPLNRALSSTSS

DP2 receptor [2] = biological target: T2, DP2 receptor (Homo sapiens, UniProt Q9Y5Y4); assay: In vitro DP2/CRTH2 radioligand binding assay ([3H]PGD2), human; design: expressed in transfected cells
T2 sequence (Q9Y5Y4 1-395): T1 sequence (Q9Y5Y4 1-395)
Procedure: (§1) HEK293 cells stably expressing recombinant human DP2 are resuspended in 10 mM Hepes, 7.4 containing 1 mM DTT, lysed and centrifuged at 75,000×g to pellet the membranes. The membranes are resuspended in 10 mM Hepes, 7.4 containing 1 mM DTT and 10% glycerol to approximately 5 mg protein/ml. […] The reactions are terminated by rapid filtration through Whatman GF/C glass fibre filter plates. […] After harvesting, the filter plates are washed 3 times with 1 ml cold Wash Buffer then dried. Scintillant is then added to the plates and the radioactivity retained on the filters is determined on a Packard TopCount (Perkin Elmer). Specific binding is determined as total radioactive binding minus non-specific binding in the presence of 10 μM PGD2. IC50s were determined using GraphPad prism analysis of drug titration curves. Mouse, rat and guinea pig DP2 receptors were also investigated.

DP2 receptor [3] = biological target: T3, DP2 receptor (Cavia porcellus, UniProt H0W1T0); assay: Whole blood eosinophil shape change (ESC) assay, guinea pig; type: cell-based; settings: read-out: IC50, PGD2-induced eosinophil shape change
T3 sequence (H0W1T0 1-391): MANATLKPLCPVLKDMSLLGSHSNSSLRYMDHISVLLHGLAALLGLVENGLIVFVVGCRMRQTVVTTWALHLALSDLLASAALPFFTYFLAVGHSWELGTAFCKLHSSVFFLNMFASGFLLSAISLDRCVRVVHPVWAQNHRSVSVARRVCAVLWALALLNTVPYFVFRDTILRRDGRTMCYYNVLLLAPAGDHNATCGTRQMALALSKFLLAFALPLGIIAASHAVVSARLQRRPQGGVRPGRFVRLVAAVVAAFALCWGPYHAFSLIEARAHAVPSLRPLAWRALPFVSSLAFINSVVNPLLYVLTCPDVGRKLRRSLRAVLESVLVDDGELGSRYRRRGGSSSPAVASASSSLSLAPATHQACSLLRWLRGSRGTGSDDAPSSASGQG

in vivo = settings: mouse, plasma, po, 10 mg/kg
[4] = Solubility profiling at various pHs; type: physicochemical; settings: 0.15 M NaCl (aq), pH-adjusted, 25 °C, thermodynamic from solid
Procedure: Aqueous solubility was determined by suspending sufficient compound in water to give a maximum final concentration of ≧10 mg·ml^−1 of the parent free-form of the compound. The suspension was equilibrated at 25° C. for 24 hours then the pH was measured. The suspension was then filtered through a glass fibre C filter into a 96 well plate. The filtrate was then diluted by an appropriate factor. Quantitation was by HPLC with reference to a standard solution of approximately 0.1 mg·ml^−1 in DMSO. Different volumes of the standard, diluted and undiluted sample solutions were injected. The solubility was calculated using the peak areas determined by integration of the peak found at the same retention time as the principal peak in the standard injection.
The aqueous solubility was determined using the method described in Table 1. The pH was varied by the suspensions being made up in 0.15 M NaCl (aq) and the pH adjusted to the appropriate value with either dilute HCl or NaOH. The suspension was then allowed to equilibrate for two hours followed by checking the pH and readjustment if required, using either HCl or NaOH as appropriate. The suspension was then allowed to equilibrate for 24 hrs.

guinea pig DP2 receptor = biological target: T4, guinea pig DP2 receptor (Cavia porcellus, UniProt H0W1T0); assay: DP2 radioligand membrane binding assay, guinea pig
T4 sequence (H0W1T0 1-391): T3 sequence (H0W1T0 1-391)
Procedure: as §1

rat DP2 = biological target: T5, rat DP2 (Rattus norvegicus, UniProt Q6XKD3); assay: DP2 radioligand membrane binding assay, rat; settings: read-out: average IC50, inhibition of radiolabeled PGD2 binding
T5 sequence (Q6XKD3 1-403): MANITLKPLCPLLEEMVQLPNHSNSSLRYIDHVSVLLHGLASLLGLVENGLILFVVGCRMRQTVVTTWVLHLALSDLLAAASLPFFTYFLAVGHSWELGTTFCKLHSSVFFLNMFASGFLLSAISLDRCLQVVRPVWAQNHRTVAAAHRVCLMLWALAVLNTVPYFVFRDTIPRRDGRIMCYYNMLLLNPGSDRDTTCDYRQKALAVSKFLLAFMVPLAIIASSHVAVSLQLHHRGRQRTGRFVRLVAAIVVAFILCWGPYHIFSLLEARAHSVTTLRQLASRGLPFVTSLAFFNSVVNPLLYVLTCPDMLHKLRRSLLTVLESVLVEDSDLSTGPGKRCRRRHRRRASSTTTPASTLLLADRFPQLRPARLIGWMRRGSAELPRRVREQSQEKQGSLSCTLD
Procedure: as §1

SMILES: CCN(Cc1cc(C(F)(F)F)ccc1-c1cc(CC(=O)O)ccc1OC)C(=O)NCc1ccccc1 [Compound 1, [2′-(3-benzyl-1-ethyl-ureidomethyl)-6-methoxy-4′-trifluoromethyl-biphenyl-3-yl]-acetic acid]
- AUC0-24 (human, in vivo): 44.5 ng·h/mL
- Cmax (human, in vivo): 15.8 ng/mL
- t1/2 (multiple dose administration 30 mg, cohort 2, Day 7): 11.0 h
- IC50 [1]: < 20 nM
- IC50 (DP2 receptor [2]; human DP2, membrane binding, read-out: average IC50, inhibition of radiolabeled PGD2 binding): 4.9 nM
- IC50 (DP2 receptor [2]; with human serum albumin, read-out: IC50, DP2 receptor binding): 12.2 nM
- IC50 (DP2 receptor [3]): 21.5 nM
- concentration at 1 h (in vivo): 280 nM
- concentration at 2 h (in vivo): 150 nM
- concentration at 4 h (in vivo): 70 nM
- concentration at 8 h (in vivo): 30 nM
- concentration at 24 h (in vivo): < 8 nM
- solubility at 24 h ([4]; pH 5.6, saline or isotonic, Media pH 6, original pH 6.02, final pH 5.60): 160 µg/mL (≈ 320 µM)
- solubility at 24 h ([4]; saline or isotonic, Media pH 1, original pH 1.15, final pH 1.15): 6.9 µg/mL (≈ 13.8 µM)
- solubility at 24 h ([4]; saline or isotonic, Media pH 2, original pH 2.0, final pH 2.0): 1.6 µg/mL (≈ 3.2 µM)
- solubility at 24 h ([4]; saline or isotonic, Media pH 3, original pH 3.01, final pH 3.1): 2.2 µg/mL (≈ 4.4 µM)
- solubility at 24 h ([4]; saline or isotonic, Media pH 4, original pH 3.97, final pH 4.22): 3.5 µg/mL (≈ 6.99 µM)
- solubility at 24 h ([4]; saline or isotonic, Media pH 5, original pH 5.0, final pH 5.07): 53 µg/mL (≈ 106 µM)
- solubility at 24 h ([4]; saline or isotonic, Media pH 7, original pH 7.03, final pH 6.47): 590 µg/mL (≈ 1180 µM)
- solubility at 24 h ([4]; saline or isotonic, Media pH 8, original pH 8.09, final pH 7.07): 2200 µg/mL (≈ 4400 µM)
- IC50 (guinea pig DP2 receptor; average IC50, inhibition of radiolabeled PGD2 binding, guinea pig DP2, membrane binding): 4.9 nM
- IC50 (guinea pig DP2 receptor; guinea pig DP2 receptor, in the presence of 0.2% guinea pig serum albumin, read-out: IC50, radioligand membrane binding): 22.9 nM
- increase in 4-hydroxydiclofenac (CYP2C9) production compared to native cells (CYP2C9): 1.1 fold
- IC50 (rat DP2): 10.4 nM
